Source: PMC9804224, “Statin activation of skeletal ryanodine receptors (RyR1) is a class effect but separable from HMG‐CoA reductase inhibition” (British Journal of Pharmacology, 2022)
One block for each compound: values may come before it.

Columns and labels:
Format in all cases: biochemical
[1] = molecular target: T1, skeletal ryanodine receptor (RyR1) (Ovis aries, UniProt A0ACI6NWU0); experiment: single-channel recording in planar lipid bilayers (activation); also [3H]ryanodine binding EC50 […]; parameters: native RyR1 channels from skeletal muscle heavy SR vesicles
[2] = molecular target: T1, skeletal ryanodine receptor (RyR1); experiment: increase of [3H]ryanodine binding to SR membrane vesicles (channel activation); parameters: native RyR1 in skeletal muscle SR membrane vesicles
[3] = molecular target: T1, skeletal ryanodine receptor (RyR1); experiment: single-channel recording in planar lipid bilayers (activation); also [3H]ryanodine binding EC50 […]; parameters: native RyR1 channels from skeletal muscle heavy SR vesicles; remark: listed apart in the source

EC50 [1]: 130 nM
SMILES: COCc1c(C(C)C)nc(C(C)C)c(/C=C/[C@@H](O)C[C@@H](O)CC(=O)O)c1-c1ccc(F)cc1 [cerivastatin]

EC50 ([2]; read-out: EC50): 490 nM
SMILES: CC(C)c1nc(N(C)S(C)(=O)=O)nc(-c2ccc(F)cc2)c1/C=C/[C@@H](O)C[C@@H](O)CC(=O)O [rosuvastatin]

SMILES: CC[C@H](C)C(=O)O[C@H]1C[C@H](O)C=C2C=C[C@H](C)[C@H](CC[C@@H](O)C[C@@H](O)CC(=O)O)[C@H]21 [pravastatin]
EC50 [2]: 440 nM

EC50 [3]: 29 nM
SMILES: CC(C)c1c(C(=O)Nc2ccccc2)c(-c2ccccc2)c(-c2ccc(F)cc2)n1CC[C@@H](O)C[C@@H](O)CC(=O)O [atorvastatin]
